# Reference: ChEMBL document CHEMBL1201862, “PubChem BioAssay data set” (2004)
#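 How tested: cells in 96-well plates exposed to compound for 48 hours at five concentrations. At the GI50, growth is halved.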 Activity calls are given as the source filed them. Cut-off read from the data, not from the text of the source: active = GI50 up to about 1.1 µM and inactive = higher.
# Tests used:
# Experiment in all cases: NCI tumour cell line growth inhibition, 48 h
# MDA-MB-435 = test system: MDA-MB-435
# K562 = test system: K562
# UACC-62 = test system: UACC-62
# NCI-H522 = test system: NCI-H522
# SR = test system: SR
# SW-620 = test system: SW-620
# NCI/ADR-RES = test system: NCI/ADR-RES
# SK-MEL-2 = test system: SK-MEL-2
# MDA-N = test system: MDA-N
# IGROV-1 = test system: IGROV-1
# MDA-MB-231 = test system: MDA-MB-231
# COLO 205 = test system: COLO 205
# OVCAR-8 = test system: OVCAR-8
# SK-MEL-28 = test system: SK-MEL-28
# A498 = test system: A498
# NCI-H226 = test system: NCI-H226
# CCRF-CEM = test system: CCRF-CEM
# TK-10 = test system: TK-10
# SNB-19 = test system: SNB-19
# LOX IMVI = test system: LOX IMVI
SMILES,GI50 (MDA-MB-435),GI50 (K562),GI50 (UACC-62),GI50 (NCI-H522),GI50 (SR),GI50 (SW-620),GI50 (NCI/ADR-RES),GI50 (SK-MEL-2),GI50 (MDA-N),GI50 (IGROV-1),GI50 (MDA-MB-231),GI50 (COLO 205),GI50 (OVCAR-8),GI50 (SK-MEL-28),GI50 (A498),GI50 (NCI-H226),GI50 (CCRF-CEM),GI50 (TK-10),GI50 (SNB-19),GI50 (LOX IMVI)
CCC(CCN)(CCN)[N+](=O)[O-],> 100 µM (inactive),> 100 µM (inactive),> 100 µM (inactive),58.3 µM (inactive),> 100 µM (inactive),> 100 µM (inactive),> 100 µM (inactive),> 100 µM (inactive),> 100 µM (inactive),> 100 µM (inactive),> 100 µM (inactive),> 100 µM (inactive),> 100 µM (inactive),,,,,,,
C=C(C)C(=O)N1c2ccc(OC)cc2CC1C(=O)OCC (stereo not given),,> 100 µM (inactive),> 100 µM (inactive),> 100 µM (inactive),> 100 µM (inactive),> 100 µM (inactive),> 100 µM (inactive),> 100 µM (inactive),> 100 µM (inactive),> 100 µM (inactive),> 100 µM (inactive),> 100 µM (inactive),> 100 µM (inactive),> 100 µM (inactive),> 100 µM (inactive),> 100 µM (inactive),> 100 µM (inactive),> 100 µM (inactive),> 100 µM (inactive),
NNc1ccccc1Cl,> 100 µM (inactive),4.34 µM (inactive),23.4 µM (inactive),> 100 µM (inactive),,> 100 µM (inactive),> 100 µM (inactive),> 100 µM (inactive),> 100 µM (inactive),> 100 µM (inactive),> 100 µM (inactive),29 µM (inactive),> 100 µM (inactive),> 100 µM (inactive),> 100 µM (inactive),> 100 µM (inactive),43.1 µM (inactive),> 100 µM (inactive),> 100 µM (inactive),> 100 µM (inactive)
O=C1C[C@@H](c2ccccc2)O[C@@H](c2ccccc2)C1,> 100 µM (inactive),> 100 µM (inactive),> 100 µM (inactive),,,> 100 µM (inactive),> 100 µM (inactive),> 100 µM (inactive),58.6 µM (inactive),> 100 µM (inactive),> 100 µM (inactive),97.5 µM (inactive),> 100 µM (inactive),,,> 100 µM (inactive),> 100 µM (inactive),,> 100 µM (inactive),> 100 µM (inactive)
CCC/C(Cl)=N\OC(=O)Nc1cccc(C(F)(F)F)c1,,2.28 µM (inactive),18.9 µM (inactive),1.96 µM (inactive),2.26 µM (inactive),2.81 µM (inactive),20.6 µM (inactive),16.7 µM (inactive),17.6 µM (inactive),17.1 µM (inactive),17 µM (inactive),3.05 µM (inactive),17.9 µM (inactive),19.2 µM (inactive),17.8 µM (inactive),20.5 µM (inactive),2.43 µM (inactive),15.4 µM (inactive),> 100 µM (inactive),6.84 µM (inactive)
C=CCN(c1cc(OCc2ccccc2)c2c(c(C)cn2S(=O)(=O)c2ccc([N+](=O)[O-])cc2)c1[N+](=O)[O-])S(C)(=O)=O,1.47 µM (inactive),5.08 µM (inactive),> 100 µM (inactive),> 100 µM (inactive),,,> 100 µM (inactive),> 100 µM (inactive),4.07 µM (inactive),> 100 µM (inactive),> 89.5 µM (inactive),> 100 µM (inactive),> 100 µM (inactive),> 100 µM (inactive),,> 100 µM (inactive),,> 100 µM (inactive),> 100 µM (inactive),> 100 µM (inactive)
O=c1c2ccccc2n2nnc3ccc(NCCCNCCNCCCNc4ccc5nnn6c7ccccc7c(=O)c4c56)c1c32,,0.215 µM (active),14.1 µM (inactive),0.234 µM (active),0.0883 µM (active),0.251 µM (active),12.6 µM (inactive),> 50 µM (inactive),1.38 µM (inactive),0.57 µM (active),1.01 µM (active),1.39 µM (inactive),1.28 µM (inactive),> 18.5 µM (inactive),16.3 µM (inactive),0.005 µM (active),0.448 µM (active),0.832 µM (active),6.84 µM (inactive),0.566 µM (active)
O[C@@H]1C[C@H](Cl)c2c(Cl)sc(Cl)c21,> 100 µM (inactive),> 100 µM (inactive),> 100 µM (inactive),> 100 µM (inactive),> 100 µM (inactive),> 100 µM (inactive),> 100 µM (inactive),> 100 µM (inactive),> 100 µM (inactive),> 100 µM (inactive),> 100 µM (inactive),> 100 µM (inactive),> 100 µM (inactive),> 100 µM (inactive),,,> 100 µM (inactive),> 100 µM (inactive),> 100 µM (inactive),> 100 µM (inactive)
Cn1c(=O)cc(NCc2ccc(Cl)cc2)[nH]c1=O,> 100 µM (inactive),> 100 µM (inactive),30.8 µM (inactive),34.4 µM (inactive),,> 100 µM (inactive),72.9 µM (inactive),> 100 µM (inactive),> 100 µM (inactive),> 100 µM (inactive),49.2 µM (inactive),> 100 µM (inactive),44.4 µM (inactive),> 100 µM (inactive),> 100 µM (inactive),> 100 µM (inactive),,21.5 µM (inactive),43.3 µM (inactive),> 100 µM (inactive)
CNC(=O)c1nc[nH]c1/N=N/N(C)N,> 100 µM (inactive),> 100 µM (inactive),> 100 µM (inactive),> 100 µM (inactive),,> 100 µM (inactive),> 100 µM (inactive),> 100 µM (inactive),> 100 µM (inactive),> 100 µM (inactive),> 100 µM (inactive),> 100 µM (inactive),> 100 µM (inactive),> 100 µM (inactive),> 100 µM (inactive),> 100 µM (inactive),> 10 µM (inactive),> 100 µM (inactive),,74.6 µM (inactive)
S=C(S)NCC1CCC(CNC(=S)S)CC1 (stereo not given),23.3 µM (inactive),14.2 µM (inactive),34.4 µM (inactive),12.7 µM (inactive),,47.5 µM (inactive),67.8 µM (inactive),23.3 µM (inactive),26.7 µM (inactive),18.3 µM (inactive),29.2 µM (inactive),42 µM (inactive),20.9 µM (inactive),56.2 µM (inactive),> 100 µM (inactive),,10.7 µM (inactive),22.6 µM (inactive),> 100 µM (inactive),18.8 µM (inactive)
O=c1c(C(c2ccc(-c3ccccc3)cc2)c2c(O)oc3ccccc3c2=O)c(O)oc2ccccc12,22.8 µM (inactive),45.5 µM (inactive),19.3 µM (inactive),24 µM (inactive),,16.4 µM (inactive),21.6 µM (inactive),22.5 µM (inactive),19.4 µM (inactive),34.8 µM (inactive),23.3 µM (inactive),34.6 µM (inactive),17.2 µM (inactive),16.3 µM (inactive),31 µM (inactive),23.2 µM (inactive),31.3 µM (inactive),51.9 µM (inactive),30.5 µM (inactive),19.1 µM (inactive)
